pIC50: −log10 of the molar value. Where a name gives a salt, the structure may show the parent alone. Read-outs that look alike come from different tables or passages of the source.
Columns and labels:
H1755 cells = assay: Cellular phospho-ERK inhibition assay in H1755 cells; assay type: cell-based; settings: Homo sapiens, NCI-H1755, 2 hours treatment, read-out: H1755 Cell IC50
Summary of the method: (§1)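 A375 (DMEM) or H1755 (RPMI) cells in 10% FBS treated 2 h at 37 °C with 9-point series, 66 pM–10 μM, 0.25% DMSO. Phospho-ERK1/2 (Thr202/Tyr204) measured by In Cell Western, normalised to GAPDH and to DMSO and 10 μM binimetinib controls; IC50 by 4-parameter fit.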

[1] = MDR1 LLC-PK1 and BCRP MDCKII permeability assay: permeability coefficient (Papp); assay type: in vitro ADME
From the text: (§2) Final organic concentration in the assay was 1%.

[2] = target: full-length FLAG-tagged B-Raf(V600E) (Homo sapiens (Human), UniProt P15056, V600E); assay: BRAF V600E enzyme assay (TR-FRET competitive displacement); assay type: binding
Summary of the method: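 Displacement of 50 nM Tracer 1710 from 5 nM full-length N-terminally FLAG-tagged B-Raf(V600E), detected by TR-FRET with 0.5 nM Eu anti-FLAG antibody, in 25 mM HEPES pH 7.4, 10 mM MgCl2, 2% DMSO; 60 min at ~22 °C. Compounds 11-point, 3-fold from 10 μM; IC50 from 4-parameter fit at 50 POC.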

A375 cells = assay: Cellular phospho-ERK inhibition assay in A375 cells; assay type: cell-based; settings: Homo sapiens, A-375, A375 cells (head prints A357), 2 hours treatment, read-out: A357 cell IC50
Summary of the method: as §1

BCRP = BCRP (Homo sapiens (Human), UniProt Q9UNQ0); assay: BCRP MDCKII permeability assay: efflux ratio; assay type: in vitro ADME; settings: dog
Method: BCRP transfected MDCKII cells were cultured and plated according to manufacturer's recommendations. Assay conditions included with and without the BCRP-specific inhibitor, KO143, at a concentration of 0.3 μM to ascertain the contribution of BCRP to the efflux value of the test compound.
Both positive and negative controls were used to assess functionality of P-gp or BCRP efflux in the assays. […] Final organic concentration in the assay was 1%. All dosing solutions contained 10 μM lucifer yellow to monitor LLC-PK1 or MDCKII cell monolayer integrity.
For the apical to basolateral determination (A to B), 75 μL of the test article in transport buffer were added to the apical side of the individual transwells and 250 μL of basolateral media, without compound or lucifer yellow, were added to each well. For the basolateral to apical determination (B to A), 250 μL of test article in transport buffer were added to each well and 75 μL transport buffer, without compound or lucifer yellow, were added to each transwell. All tests were performed in triplicate, and each compound was tested for both apical to basolateral and basolateral to apical transport. The plates were incubated for 2 hours on a Lab-Line Instruments Titer Orbital Shaker (VWR, West Chester, PA) at 50 rpm and 37° C. with 5% CO2. All culture plates were removed from the incubator and 50 μL of media were removed from the apical and basolateral portion of each well and added to 150 μL of 1 μM labetalol in 2:1 acetonitrile (acetonitrile): H2O, v/v.
These values were accepted when found to be below 2% for apical to basolateral and 5% basolateral to apical flux across the MDR1-transfected LLC-PK1 or BCRP-transfected MDCKII cell monolayers. The plates were sealed and the contents of each well analyzed by LC-MS/MS. The compound concentrations were determined from the ratio of the peak areas of the compound to the internal standard (labetalol) in comparison to the dosing solution.
The LC-MS/MS system was comprised of an HTS-PAL autosampler (Leap Technologies, Carrboro, NC), an HP1200 HPLC (Agilent, Palo Alto, CA), and a MDS Sciex 4000 Q Trap system (Applied Biosystems, Foster City, CA). […] The total run time, including re-equilibration, for a single injection was 1.2 minutes. Mass spectrometric detection of the analytes was accomplished using the ion spray positive mode.
An efflux ratio is calculated from the mean apical to basolateral (A-B) Papp data and basolateral to apical (B-A) Papp data using the following equation: Efflux ratio=Papp(B-A)/Papp(A-B)

P-gp (MDR1) = P-gp (MDR1) (Homo sapiens (Human), UniProt P08183); assay: MDR1 LLC-PK1 permeability assay: efflux ratio; assay type: in vitro ADME; settings: pig
From the text: as §2

[3] = averaged IC50, TR-FRET tracer displacement, 60 min

Chain of P-gp (MDR1) (P08183 whole entry, species assumed): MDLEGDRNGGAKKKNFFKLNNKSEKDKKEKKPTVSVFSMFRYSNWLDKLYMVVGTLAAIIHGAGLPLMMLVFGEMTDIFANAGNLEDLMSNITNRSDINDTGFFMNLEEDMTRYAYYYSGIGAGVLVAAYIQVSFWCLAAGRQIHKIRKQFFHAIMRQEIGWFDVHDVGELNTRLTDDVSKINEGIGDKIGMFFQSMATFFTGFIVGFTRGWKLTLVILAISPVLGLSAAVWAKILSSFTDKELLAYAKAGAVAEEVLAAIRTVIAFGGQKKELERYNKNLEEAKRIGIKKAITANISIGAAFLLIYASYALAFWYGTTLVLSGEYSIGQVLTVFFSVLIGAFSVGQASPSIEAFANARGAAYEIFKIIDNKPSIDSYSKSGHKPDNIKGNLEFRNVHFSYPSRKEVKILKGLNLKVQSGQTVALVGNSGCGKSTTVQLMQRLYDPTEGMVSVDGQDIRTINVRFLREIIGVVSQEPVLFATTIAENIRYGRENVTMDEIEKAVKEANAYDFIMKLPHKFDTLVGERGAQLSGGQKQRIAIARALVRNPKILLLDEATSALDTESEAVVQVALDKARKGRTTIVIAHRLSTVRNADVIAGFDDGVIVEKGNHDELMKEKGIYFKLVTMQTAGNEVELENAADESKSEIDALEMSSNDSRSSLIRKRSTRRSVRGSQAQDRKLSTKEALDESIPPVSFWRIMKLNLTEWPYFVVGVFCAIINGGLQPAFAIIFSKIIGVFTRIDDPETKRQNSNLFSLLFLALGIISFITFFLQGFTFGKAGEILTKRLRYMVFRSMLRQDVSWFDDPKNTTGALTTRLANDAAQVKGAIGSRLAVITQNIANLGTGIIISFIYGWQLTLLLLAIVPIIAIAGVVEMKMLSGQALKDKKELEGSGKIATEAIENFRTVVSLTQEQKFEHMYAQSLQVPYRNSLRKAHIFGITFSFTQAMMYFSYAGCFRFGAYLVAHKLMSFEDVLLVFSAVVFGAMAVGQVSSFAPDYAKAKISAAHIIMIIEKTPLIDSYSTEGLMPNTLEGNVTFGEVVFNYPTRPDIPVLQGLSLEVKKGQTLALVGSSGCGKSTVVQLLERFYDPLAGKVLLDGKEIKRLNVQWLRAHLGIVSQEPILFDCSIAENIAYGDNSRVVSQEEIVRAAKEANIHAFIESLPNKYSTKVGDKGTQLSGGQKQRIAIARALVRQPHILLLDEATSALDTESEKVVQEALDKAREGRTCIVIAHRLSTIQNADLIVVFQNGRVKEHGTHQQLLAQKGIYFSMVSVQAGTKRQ
Chain of full-length FLAG-tagged B-Raf(V600E) (P15056 whole entry V600E): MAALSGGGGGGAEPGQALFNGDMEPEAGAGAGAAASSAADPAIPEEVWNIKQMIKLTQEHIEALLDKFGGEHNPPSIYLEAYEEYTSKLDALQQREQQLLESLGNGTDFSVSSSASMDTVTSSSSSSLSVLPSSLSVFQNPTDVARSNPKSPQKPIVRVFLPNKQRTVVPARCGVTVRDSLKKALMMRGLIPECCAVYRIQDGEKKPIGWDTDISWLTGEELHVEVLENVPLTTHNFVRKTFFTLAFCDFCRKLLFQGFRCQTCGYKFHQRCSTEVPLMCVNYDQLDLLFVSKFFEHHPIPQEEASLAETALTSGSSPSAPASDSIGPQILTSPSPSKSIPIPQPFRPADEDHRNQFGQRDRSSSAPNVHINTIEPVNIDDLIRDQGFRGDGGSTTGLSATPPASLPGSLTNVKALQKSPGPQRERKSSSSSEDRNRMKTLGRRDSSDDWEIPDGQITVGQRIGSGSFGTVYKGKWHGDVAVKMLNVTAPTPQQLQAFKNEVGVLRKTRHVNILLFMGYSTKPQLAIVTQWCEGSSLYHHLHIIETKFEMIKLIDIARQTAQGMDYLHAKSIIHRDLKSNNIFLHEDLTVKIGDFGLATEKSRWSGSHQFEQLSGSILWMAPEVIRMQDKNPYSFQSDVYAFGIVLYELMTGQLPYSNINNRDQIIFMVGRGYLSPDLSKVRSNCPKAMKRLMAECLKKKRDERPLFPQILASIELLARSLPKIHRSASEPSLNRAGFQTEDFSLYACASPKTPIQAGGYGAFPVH
Chain of BCRP (Q9UNQ0 whole entry): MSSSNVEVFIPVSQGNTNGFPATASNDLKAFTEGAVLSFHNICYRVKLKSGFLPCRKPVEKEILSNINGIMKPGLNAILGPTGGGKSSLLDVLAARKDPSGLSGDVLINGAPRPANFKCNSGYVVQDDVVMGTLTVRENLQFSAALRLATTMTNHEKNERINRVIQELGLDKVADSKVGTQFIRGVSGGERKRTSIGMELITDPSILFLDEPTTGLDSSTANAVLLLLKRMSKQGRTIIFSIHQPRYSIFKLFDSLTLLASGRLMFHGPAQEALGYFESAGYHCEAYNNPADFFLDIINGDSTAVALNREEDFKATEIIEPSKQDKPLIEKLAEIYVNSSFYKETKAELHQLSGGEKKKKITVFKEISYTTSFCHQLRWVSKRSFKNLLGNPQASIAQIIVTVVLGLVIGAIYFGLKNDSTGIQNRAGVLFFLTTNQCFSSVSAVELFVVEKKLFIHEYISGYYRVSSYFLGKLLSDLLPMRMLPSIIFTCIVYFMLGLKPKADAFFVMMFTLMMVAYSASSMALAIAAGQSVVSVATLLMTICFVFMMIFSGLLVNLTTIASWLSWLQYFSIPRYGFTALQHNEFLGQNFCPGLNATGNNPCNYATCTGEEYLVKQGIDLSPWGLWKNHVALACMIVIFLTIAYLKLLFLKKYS

| pIC50 (H1755 cells) | Papp at 2 h, 1 µM [1] | pIC50 [2, 3] | pIC50 (A375 cells) | efflux ratio at 2 h, 1 µM (BCRP) | efflux ratio at 2 h, 1 µM (P-gp (MDR1)) | pIC50 [2] | SMILES |
| --- | --- | --- | --- | --- | --- | --- | --- |
| 7.15 | 30 ×10⁻⁶ cm/s | 8.70 | 8.52 | 1 | 1.4 | – | Cn1cnc2ccc(Oc3c(F)ccc(NS(=O)(=O)N4CC5CC4C5)c3Cl)c(F)c2c1=O [Example 49, N-(2-chloro-4-fluoro-3-((5-fluoro-3-methyl-4-oxo-3,4-dihydroquinazolin-6-yl)oxy)phenyl)-2-azabicyclo[2.1.1]hexane-2-sulfonamide] |
| 7.70 | 26 ×10⁻⁶ cm/s | 8.70 | 9.00 | 6.3 | 5.3 | – | Cn1cnc2ccc(Nc3c(F)ccc(NS(=O)(=O)N4CCCC4)c3Cl)c(C#N)c2c1=O [Example 50, N-(2-chloro-3-((5-cyano-3-methyl-4-oxo-3,4-dihydroquinazolin-6-yl)amino)-4-fluorophenyl)pyrrolidine-1-sulfonamide trifluoroacetate] |
| 7.60 | 30 ×10⁻⁶ cm/s | 8.15 | 8.22 | 1.8 | 2 | – | [2H]C([2H])([2H])O[C@@H]1CCN(S(=O)(=O)Nc2ccc(F)c(Nc3ccc4ncn(C)c(=O)c4c3Cl)c2Cl)C1 [Example 53, (R)-N-(2-chloro-3-((5-chloro-3-methyl-4-oxo-3,4-dihydroquinazolin-6-yl)amino)-4-fluorophenyl)-3-(methoxy-d3)pyrrolidine-1-sulfonamide trifluoroacetate] |
| 7.48 | 31 ×10⁻⁶ cm/s | 7.77 | 8.40 | 3 | 3.6 | – | [2H]C([2H])([2H])O[C@@H]1CCN(S(=O)(=O)Nc2ccc(F)c(Nc3ccc4ncn(C)c(=O)c4c3F)c2Cl)C1 [Example 54, (R)-N-(2-chloro-4-fluoro-3-((5-fluoro-3-methyl-4-oxo-3,4-dihydroquinazolin-6-yl)amino)phenyl)-3-(methoxy-d3)pyrrolidine-1-sulfonamide trifluoroacetate] |
| 6.91 | 33 ×10⁻⁶ cm/s | 7.35 | 7.57 | 1 | 1.5 | – | [2H]C([2H])([2H])O[C@@H]1CCN(S(=O)(=O)Nc2ccc(F)c(Nc3ccc4ncn(C)c(=O)c4c3C)c2Cl)C1 [Example 55, (R)-N-(2-chloro-3-((3,5-dimethyl-4-oxo-3,4-dihydroquinazolin-6-yl)amino)-4-fluorophenyl)-3-(methoxy-d3)pyrrolidine-1-sulfonamide trifluoroacetate] |
| 7.21 | 25 ×10⁻⁶ cm/s | – | 7.57 | 0.9 | 0.9 | 8.52 | Cc1c(Oc2c(F)ccc(NS(=O)(=O)N3CC[C@@H](OC(F)F)C3)c2Cl)ccc2ncn(C)c(=O)c12.O=C(O)C(F)(F)F [Example 57, (R)-N-(2-chloro-3-((3,5-dimethyl-4-oxo-3,4-dihydroquinazolin-6-yl)oxy)-4-fluorophenyl)-3-(difluoromethoxy)pyrrolidine-1-sulfonamide trifluoroacetate] |
| 7.49 | 27 ×10⁻⁶ cm/s | 8.52 | 8.22 | 7.3 | 5.3 | – | Cn1cnc2ccc(Nc3cc(Cl)cc(NS(=O)(=O)N4CC[C@@H](F)C4)c3F)c(F)c2c1=O [Example 58, (R)-N-(5-chloro-2-fluoro-3-((5-fluoro-3-methyl-4-oxo-3,4-dihydroquinazolin-6-yl)amino)phenyl)-3-fluoropyrrolidine-1-sulfonamide trifluoroacetate] |
| 7.22 | 31 ×10⁻⁶ cm/s | – | 8.00 | 12.9 | 4.9 | 9.00 | Cn1cnc2ccc(Oc3c(F)ccc(NS(=O)(=O)N4C[C@@H](F)[C@@H](F)C4)c3Cl)c(Cl)c2c1=O [Example 59, cis-N-(2-chloro-3-((5-chloro-3-methyl-4-oxo-3,4-dihydroquinazolin-6-yl)oxy)-4-fluorophenyl)-3,4-difluoropyrrolidine-1-sulfonamide] |
| 7.21 | 18 ×10⁻⁶ cm/s | – | 8.15 | 1.6 | 3.1 | 8.70 | Cn1cnc2ccc(Oc3c(F)ccc(NS(=O)(=O)N4CC[C@@H](OC(F)F)C4)c3Cl)c(Cl)c2c1=O [Example 60, (R)-N-(2-chloro-3-((5-chloro-3-methyl-4-oxo-3,4-dihydroquinazolin-6-yl)oxy)-4-fluorophenyl)-3-(difluoromethoxy)pyrrolidine-1-sulfonamide] |
| 6.71 | 29 ×10⁻⁶ cm/s | – | 7.60 | 3.3 | 2.2 | 8.70 | Cn1cnc2ccc(Oc3c(F)ccc(NS(=O)(=O)N4CCC(F)(F)C4)c3Cl)c(Cl)c2c1=O [Example 61, N-(2-chloro-3-((5-chloro-3-methyl-4-oxo-3,4-dihydroquinazolin-6-yl)oxy)-4-fluorophenyl)-3,3-difluoropyrrolidine-1-sulfonamide] |
| 6.73 | 29 ×10⁻⁶ cm/s | 7.89 | 7.51 | 1 | 1.6 | – | CC[C@@H]1CCN(S(=O)(=O)Nc2ccc(F)c(Nc3ccc4ncn(C)c(=O)c4c3F)c2Cl)C1 [Example 62, (R)-N-(2-chloro-4-fluoro-3-((5-fluoro-3-methyl-4-oxo-3,4-dihydroquinazolin-6-yl)amino)phenyl)-3-ethylpyrrolidine-1-sulfonamide trifluoroacetate] |
| 7.08 | 39 ×10⁻⁶ cm/s | – | 8.15 | 3.6 | 1.7 | 9.00 | Cn1cnc2ccc(Oc3c(F)ccc(NS(=O)(=O)N4CCC(F)(F)C4)c3Cl)c(F)c2c1=O [Example 63, N-(2-chloro-4-fluoro-3-((5-fluoro-3-methyl-4-oxo-3,4-dihydroquinazolin-6-yl)oxy)phenyl)-3,3-difluoropyrrolidine-1-sulfonamide] |
| 6.90 | 28 ×10⁻⁶ cm/s | – | 7.89 | 1 | 1.3 | 8.70 | Cn1cnc2ccc(Oc3c(F)ccc(NS(=O)(=O)N4CC5CC5C4)c3Cl)c(F)c2c1=O (stereo not drawn) [Example 65, N-(2-chloro-4-fluoro-3-((5-fluoro-3-methyl-4-oxo-3,4-dihydroquinazolin-6-yl)oxy)phenyl)-3-azabicyclo[3.1.0]hexane-3-sulfonamide] |
| 7.36 | 25 ×10⁻⁶ cm/s | – | 8.22 | 3.1 | 2.2 | 8.40 | Cn1cnc2ccc(Oc3c(F)ccc(NS(=O)(=O)N4CC[C@@H](OC(F)F)C4)c3Cl)c(F)c2c1=O [Example 66, (R)-N-(2-chloro-4-fluoro-3-((5-fluoro-3-methyl-4-oxo-3,4-dihydroquinazolin-6-yl)oxy)phenyl) 3-(difluoromethoxy)pyrrolidine-1-sulfonamide] |
| 7.12 | 24 ×10⁻⁶ cm/s | – | 8.10 | 1 | 1.4 | 8.70 | Cn1cnc2ccc(Oc3c(F)ccc(NS(=O)(=O)N4CC5CC4C5)c3Cl)c(Cl)c2c1=O [Example 67, N-(2-chloro-3-((5-chloro-3-methyl-4-oxo-3,4-dihydroquinazolin-6-yl)oxy)-4-fluorophenyl)-2-azabicyclo[2.1.1]hexane-2-sulfonamide] |
| 6.54 | 25 ×10⁻⁶ cm/s | – | 7.19 | 1 | 0.7 | 7.68 | CCN(C)S(=O)(=O)Nc1ccc(F)c(Oc2ccc3ncn(C)c(=O)c3c2C)c1Cl [Example 68, 6-(2-Chloro-3-{[ethyl(methyl)sulfamoyl]amino}-6-fluorophenoxy)-3,5-dimethyl-3,4 dihydroquinazolin-4-one] |
| 7.06 | 25 ×10⁻⁶ cm/s | – | 7.66 | 0.9 | 0.8 | 8.15 | Cc1c(Oc2c(F)ccc(NS(=O)(=O)N3CCCC3)c2Cl)ccc2ncn(C)c(=O)c12 [Example 69, N-(2-chloro-3-((3,5-dimethyl-4-oxo-3,4-dihydroquinazolin-6-yl)oxy)-4-fluorophenyl)pyrrolidine-1-sulfonamide] |
| 6.79 | 40 ×10⁻⁶ cm/s | 6.52 | 7.16 | 0.9 | 1.2 | – | Cc1c(Nc2c(F)ccc(NS(=O)(=O)N(C)C)c2Cl)ccc2ncn(C)c(=O)c12 [Example 71, N-(2-chloro-3-((3,5-dimethyl-4-oxo-3,4-dihydroquinazolin-6-yl)amino)-4-fluorophenyl)-(N,N-dimethyl)-sulfamide] |
